Marks after values point to notes of the source that are not given here.
Tests used:
[1] = system: ApoE KO mice fed a Western diet; assay: Sphinganine in liver and aorta by LC/MS, 12 weeks; type: in vivo; details: 0.3 mg/kg/day
Text: Analysis of Sphingolipids and Phospholipids by LC/MS and HPLC-Total lipids were extracted by the modified method of Bligh-Dyer extraction (E. G. Bligh and W. J. Dyer, Can. J. Med. Sci. 1959;37:911-917; and D. K. Perry, A. Bielawska and Y. A. Hannun, Methods Enzymol. 2000;312:22-31). A Micromass (Waters Corp., Milford, Mass.) Quattro Ultima tandem quadrupole mass spectrometer with a standard Z-sprayTM ion source, set to electrospray positive ionization mode, with MassLynxTM version 3.5 operating software, was used for all quantitative determinations. Source conditions were typically as follows: capillary 3.5 kV, source temperature 110 degrees C., and desolvation temperature 325 degrees C. Multipliers were set to 650 V, and the dwell time for each analyte was 100 milliseconds. […] The following ion transitions were used for quantification: sphingomyelin (704→184 m/z), sphinganine (302→284 m/z), ceramide (566→264 m/z) and psychosine (462→282 m/z) as an internal standard. […] For the quantitative method, the analytical column was a Phenomenex (Torrance, Calif.) Polar-RP (2.0×150 mm, 4 μm) with a […] […] Lipid extracts were analyzed by HPLC and evaporative light scattering detector to determine plasma sphingomyelin and phosphatidylcholine (PC) levels (R. Homan and M.K. Anderson, J. Chromatogr. B. Biomed. Sci. Appl. 1998;708:21-6). […] Sphinganine levels in liver (A) and aorta (B) were determined by LC/MS. […]

ApoE knockout mice = assay: Plasma sphingomyelin and phosphatidylcholine by HPLC, 4 weeks (Table 2); type: in vivo; details: for PC in plasma / SM in plasma / SM; PC molar ratio: diet admix 4 weeks, n = 10
Method: Animal experiments—Male C57BI/6J and ApoE KO mice on C57BI/6J background were obtained from the Jackson Laboratory (Bar Harbor, Me.) or Taconic (Germantown, N.Y.) (Plaque formation in ApoE KO mice is lipid-driven (A. S. Plump et al., Cell. 1992;71 (2):343-53)). Myriocin was mixed with Western diet containing 0.21% cholesterol and 21% fat. 8-12-week-old mice received 0.3 mg myriocin/kg/day for 12 weeks (Table 1). […] Control groups consisted of ApoE KO mice fed normal chow or Western diet without myriocin, and normal chow-fed C57BI/6J mice. Body weight and chow feeding was measured every week to examine the food consumption. For the femoral artery cuff model, 8-10 week-old male ApoE KO mice were anethetized and the right femoral artery was dissected from its surroundings. A nonconstrictive polyethylene cuff (Portex, 0.40-mm inner diameter, 0.80-mm outer diameter, and 1.5-mm length) was placed looselyaround the right femoral artery.
The liquid chromatography system was composed of twin Shimadzu (Columbia, Md.) LC-10ADvp HPLC pumps with a SCL-10Avp controller (flow rate 0.2 mL/minute), and a LEAP Technologies (Carrboro, N.C.) CTC PAL autosampler. For the quantitative method, the analytical column was a Phenomenex (Torrance, Calif.) Polar-RP (2.0×150 mm, 4 μm) with a MetaChem (Torrance, Calif.) MetaGuard Polaris C8 2.0 mm direct connect (5 μm) guard column. Mobile phase A consisted of water/acetonitrile/formic acid (60/40/0.1) and mobile phase B was propanol. The HPLC pumps were programmed with a gradient for each injection to deliver 98% mobile phase A (0-1 minute), 30% mobile phase A (1-2 minutes), 30% mobile phase A (2-4 minutes), and 98% mobile phase A (4-4.5 minutes). A sample volume of 2 μL was injected into the LC/MS/MS system. Final chromatographic retention times for sphingomyelin, sphinganine, psychosine (internal standard) and ceramide were 4.84 minutes, 5.43 minutes, 4.92 minutes and 5.31 , minutes, respectively. Lipid extracts were analyzed by HPLC and evaporative light scattering detector to determine plasma sphingomyelin and phosphatidylcholine (PC) levels (R. Homan and M.K. Anderson, J. Chromatogr. B. Biomed. Sci. Appl. 1998;708:21-6).
To investigate whether myriocin was effective in lowering sphingomyelin biosynthesis, various concentrations of myriocin were administered to ApoE KO mice for 4 weeks and plasma SM levels were examined. […] At the highest dose of myriocin (1 mg/kg/day), plasma sphingomyelin levels were reduced by 70% when compared with no-myriocin control. Thus, myriocin in a diet admix was effective in inhibiting sphingomyelin biosynthesis and lowering plasma sphingomyelin levels. Since SM levels relative to phospholipids has been regarded as a risk factor for coronary artery disease, plasma PC levels were determined by HPLC analysis. Although there were significant changes in plasma SM levels, plasma PC levels were not changed to the same extent by myriocin. Consequently, SM/PC molar ratio was lowered by myriocin in a dose-dependent manner (Table 2).

CCCCCCC(=O)CCCCCC/C=C/C[C@@H](O)[C@H](O)[C@@](N)(CO)C(=O)O [myriocin]
sphinganine levels in the liver lowered ([1]; vs Western diet-fed ApoE KO mice): 42% | sphinganine levels in aorta lower ([1]; vs Western diet-fed group): 45% | plasma sphingomyelin levels reduced (HPLC) (ApoE knockout mice; 1 mg/kg/day, 4 weeks, vs no-myriocin control): 70% | PC in plasma (ApoE knockout mice; WD + 0.1 mg myr): 2.763 ± 0.195 nmol/mL | SM in plasma (ApoE knockout mice; WD + 0.1 mg myr): 0.379 ± 0.035 nmol/mL | SM; PC molar ratio (ApoE knockout mice; WD + 0.1 mg myr): 0.137 ± 0.005^b | PC in plasma (ApoE knockout mice; WD + 0.3 mg myr): 1.999 ± 0.085 nmol/mL | SM in plasma (ApoE knockout mice; WD + 0.3 mg myr): 0.243 ± 0.032 nmol/mL | SM; PC molar ratio (ApoE knockout mice; WD + 0.3 mg myr): 0.122 ± 0.013^b | PC in plasma (ApoE knockout mice; WD + 1 mg myr): 2.044 ± 0.146 nmol/mL | SM in plasma (ApoE knockout mice; WD + 1 mg myr): 0.175 ± 0.013 nmol/mL | SM; PC molar ratio (ApoE knockout mice; WD + 1 mg myr): 0.086 ± 0.008^b
